Source: patent US20190313942A1, “INGESTIBLE SYSTEM TO MONITOR GASTROINTESTINAL HEALTH IN SITU” (Massachusetts Institute of Technology, priority 2018, published 2019)

Experiments:
[1] = tested on: gastrointestinal bleeding; experiment: Guaiac test on fecal pellets after indomethacin; assay type: in vivo, C57BL/6J mice; conditions: 10 mg/kg oral, following morning
Procedure: For indomethacin experiments, animals were inoculated with blood sensor bacteria and fecal pellets were collected 6 hours later for luminescence analysis and CFU enumeration. Indomethacin (Sigma) solution was prepared by dissolving the compound in absolute ethanol to a concentration of 20 mg/mL. Immediately prior to mouse gavage, the indomethacin stock solution was diluted to 1.25 mg/mL in PBS and 0.2 mL of dilute indomethacin solution was administered to each animal (10 mg/kg). Preparation of indomethacin solution using this method was essential to ensure reliable and reproducible induction of gastrointestinal bleeding. The following morning, gastrointestinal bleeding was confirmed by performing a guaiac test (Hemoccult, Beckman Coulter) on fecal pellets from each animal. […] Subsequently, mice were again administered blood sensor bacteria and fecal pellets were collected 6 hours later for luminescence analysis and CFU enumeration.

PL(HrtO) = experiment: HrtR-mediated repression of PL(HrtO)-luxCDABE luminescence; assay type: cell-based, E. coli MG1655; conditions: co-transformation of PL(HrtO)-luxCDABE with constitutively expressing HrtR construct
Procedure: For genetic circuit characterization, overnight cultures were diluted 1:100 in fresh LB and incubated with shaking at 37° C. for 2 hours. Cultures were removed from the incubator and 200 μL of culture was transferred to a 96-well plate containing various concentrations of inducer. The plate was returned to a shaking incubator at 37° C. Following 2 hours of incubation, luminescence was read using a BioTek Synergy H1 Hybrid Reader using a […] integration time and a sensitivity of 135. Luminescence values, measured in relative luminescence units (RLUs), were normalized by the optical density of the culture measured at 600 nm. For in vitro kinetic studies, subcultured cells were mixed with inducer in a 96-well plate and immediately placed in the plate reader set at 37° C. without shaking. Luminescence and absorbance was read at 5 minute intervals.

Molecule | guaiac test (gastrointestinal bleeding) [1] | reduction in luminescence (PL(HrtO)) [fold]
COc1ccc2c(c1)c(CC(=O)O)c(C)n2C(=O)c1ccc(Cl)cc1 [indomethacin] | guaiac positive | 
HrtR: heme-regulated TetR-family transcriptional repressor from Lactococcus lactis (protein, Heme-responsive transcriptional repressor, heme-regulated TetR-family transcriptional repressor from Lactococcus lactis) MPKSTYFSLSDEKRKRVYDACLLEFQTHSFHEAKIMHIVKALDIPRGSFYQYFEDLKDSYYYILSQETVEIHDLFFNLLKEYPLEVALNKYKYLLLENLVNSPQYNLYKYRFLDWTYELERDWKPKGEVTVPARELDNPISQVLKSVIHNLVYRMFSENWDEQKFIETYDKEIKLLTEGLLNYVTESKK |  | 4.4
